In ChEMBL document CHEMBL3301451, “MMV Malaria Box gametocyte functional viability assay screening”:

Tests used:
Type in all cases: functional
Design in all cases: concentration or dose not given beside the values
Plasmodium berghei = test: MMV: P. berghei-infected blood was withdrawn from mice by cardiac pucture before being immediately added to ookinete culture medium containing test compounds. 26 hr later, GFP-positive ookinetes were identified and counted by automated microscopy. All compounds were tested in 4 independent experiments and data presented here is the mean.
Plasmodium falciparum [1] = test: (§1) MMV: P. falciparum NF54 functionally mature Stage V gametocytes were incubated for 24 hr in the presence of the test compounds. Gamete formation was then triggered by addition of 2uM xantheurenic acid and temperature decrease to ~20C. Male gamete exflagellation was recorded and analysed by automated microscopy after 20 min. All compounds were tested in 4 independent experiments and data presented here is the mean.
Plasmodium falciparum [2] = test: as §1, with “Female” for “Male”, “formation” for “exflagellation”, “24 hr later” for “and analysed”, “detection of surface labelling of female gametes with a Cy3-conjugated antibody reactive to Pfs25.” for “after 20 min.”; details: NF54, 24 h

Row | Compound | inhibition (Plasmodium berghei) | inhibition (Plasmodium falciparum [1]) | inhibition (Plasmodium falciparum [2])
1 | CCCCCCc1cc2cc(-c3csc(C=Cc4ccccc4)n3)c(=O)oc2cc1O | -12.07% | -65.7% | -35.1%
2 | CC(C)c1ccc(CNCC(O)c2ccccc2)cc1.Cl (configuration not stated) | -4.617% | 4.92% | -2.85%
3 | COc1ccc(N2CCN(C(CNC(=O)CC(C)(C)C)c3ccc4c(c3)OCO4)CC2)cc1 (configuration not stated) | -5.344% | 1.8% | -24.8%
4 | Cc1ccc(Nc2nc(N)c3ccccc3n2)cc1Cl | -5.317% | -51.8% | -26.1%
5 | CCN1CCN(c2c(C(=O)c3ccccc3)cnc3cc(OC)c(OC)cc23)CC1 | -4.456% | -41.4% | -6.16%
6 | CCOc1ccc(CCNC(=O)c2cccs2)cc1OCC | 8.759% | 22% | 2.16%
7 | O=C(Nc1cccc(C2=NCCN2)c1)Nc1cccc(C2=NCCN2)c1 [IMIDOCARB] | -13.35% | -36.7% | -30.2%
8 | CCN(CC)CCNc1ccnc2cc3ccccc3cc12.O=P(O)(O)O | 2.138% | 9.43% | -24%
9 | c1ccc(/C2=N/c3ccccc3/N=C(/c3ccccc3)c3ccccc32)cc1 | 4.56% | 41.7% | 5.88%
10 | Cc1ccc(Nc2nc(NCCO)c3ccccc3n2)cc1C | -19.56% | 12.7% | -25.6%
11 | COc1cccc(Cn2c(Oc3ccccc3)nc3c2c(=O)n(C)c(=O)n3C)c1 | -11.71% | 35.5% | 1.84%
12 | COc1ccc(C(=O)NC(c2ccc(Cl)cc2Cl)c2cc(Cl)c3cccnc3c2O)cc1 (configuration not stated) | 1.805% | -11.1% | -10.1%
13 | Clc1ccc2[nH]c3c(NCCCN4CCOCC4)ncnc3c2c1 | -16.54% | 21.6% | -15.9%
14 | CCc1ccc(CNCC(O)c2ccccc2)cc1.Cl (configuration not stated) | -12.46% | -40.9% | -20.9%
15 | O=C(NCCCN1CCC(N2CCCCC2)CC1)C1=Cc2cc(Br)ccc2OC1 | -4.183% | 8.14% | 15%
16 | COc1cc(-c2nc(-c3ccc(Sc4ccccc4)cc3)c(-c3ccccc3)[nH]2)cc(OC)c1O | -6.549% | 13.5% | -13.7%
17 | CCCN(CCC)CCCNC(=O)c1cc2c(-c3ccc(OC)c(OC)c3)nn(C)c2s1 | 5.504% | -20.2% | -7.86%
18 | CCOC(=O)c1cnc2ccc(OC)cc2c1NCc1ccccc1 | -6.823% | -12.8% | -40.9%
19 | CCOC(=O)c1cnc2c(C)cc(C)cc2c1Nc1ccc(OC)c(OC)c1 | 1.422% | 25.9% | -14.2%
20 | O=C(Nc1cccc(-c2nc3ccccc3[nH]2)c1)c1cccc(NC(=O)c2ccco2)c1 | -15.24% | 31.6% | -35.1%
21 | Cc1ccc(-c2cc3c(nn2)-c2ccccc2C3=O)cc1 | 22.47% | 30.4% | -20.4%
22 | O=C(Nc1ccc(N2CCN(Cc3ccccc3)CC2)cc1)c1cccs1.O=C(O)C(F)(F)F | 16.79% | 39.5% | 16.2%

Row | Compound | inhibition (Plasmodium berghei) | inhibition (Plasmodium falciparum [1]) | inhibition (Plasmodium falciparum [2])
23 | CC(O)(c1ccc(Cl)cc1)C(CN1CCCCC1)c1ccccc1.Cl (configuration not stated) | -9.711% | -5.37% | -1.41%
24 | Oc1ccc(C(=C(Cl)Cl)c2ccc(O)cc2)cc1 | 3.378% | 5.51% | -25.3%
25 | O=C(c1ccccc1F)N(Cc1ccc(Cl)cc1)c1ccccn1 | -2.284% | 20.3% | -28.6%
26 | CC1CCN(Cc2c(O)ccc3cc(-c4nc5ccccc5s4)c(=O)oc23)CC1 | 100% | -4.49% | -24.7%
27 | Cc1cc(C)cc(Nc2cc(C)nc3nc(C(F)(F)F)nn23)c1 | -26.51% | 13.1% | -17.3%
28 | CCOc1ccc(Nc2c3ccccc3nc3ccccc23)cc1.Cl | 63.73% | 21.7% | -9.14%
29 | Oc1ccccc1CN1CCC2(CCCN(Cc3ccccc3F)C2)C1 (configuration not stated) | -6.641% | 22.9% | -21.4%
30 | CCOc1cccc2sc(N(Cc3cccnc3)C(=O)C3CCCCC3)nc12 | -7.751% | -1.33% | -5.49%
31 | CC(C)(C)CC(C)(C)NCC(O)COc1ccc(Cl)cc1Cl (configuration not stated) | -15.58% | -10.7% | -45.2%
32 | Oc1c(CN2CCN(c3ccccc3F)CC2)cc(Br)c2cccnc12 | 34.85% | 5.41% | 31.5%
33 | COc1ccc(CN2CCCC(C(=O)c3ccc(C(F)(F)F)cc3)C2)c(O)c1 (configuration not stated) | -17.45% | 36.1% | 6.89%
34 | c1ccc(-c2ccc(-c3nc4ccccc4[nH]3)cc2)cc1 | -1.667% | 15.6% | -7.69%
35 | Cc1ccc(C2CC(C(F)(F)F)n3nc(C(=O)N4CCN(C(c5ccccc5)c5ccccc5)CC4)cc3N2)cc1 (configuration not stated) | 12.55% | 8.58% | -8.56%
36 | Oc1c(C(Nc2ccccn2)c2cccc(Oc3ccccc3)c2)ccc2cccnc12 (configuration not stated) | -4.794% | -38.1% | -17.6%
37 | Cc1cccc(Nc2nc(N)c3ccccc3n2)c1.Cl | -25.03% | -38.3% | -22.2%
38 | CCOC(=O)c1c[nH]c2c(CC)cccc2c1=O | -1.306% | 21.5% | 8.74%
39 | Cc1cc(Nc2cccc(F)c2)nc(NCc2ccccc2)n1 | 4.533% | 20.4% | -45.8%
40 | CC1=C(CC(=O)c2cccc([N+](=O)[O-])c2)C(=O)c2ccccc2C1=O | -6.724% | -2.58% | -17.4%
41 | CC(C)(C)c1ccc(C(=O)Nc2c3c(nn2-c2cccc(Cl)c2)CSC3)cc1 | -7.14% | 25.7% | -5.95%
42 | O=c1nc(C=Cc2ccc(Cl)cc2)oc2ccccc12 | 7% | 41% | -1.1%
43 | C=CC12CCN(CC1)C(C(O)c1ccnc3ccc(OC)cc13)C2.Cl (configuration not stated) | -25.15% | -29.1% | -31.3%
44 | CCn1nc(-c2ccc(C(=O)OC)cc2)nc2c(=O)n(C)c(=O)nc1-2 | 17.71% | 25.3% | -15.8%

Row | Compound | inhibition (Plasmodium berghei) | inhibition (Plasmodium falciparum [1]) | inhibition (Plasmodium falciparum [2])
45 | COc1ccc(CNC(=O)c2cc3c(=O)n4ccccc4nc3n(CCc3ccccc3)c2=N)cc1 | -21.18% | -25% | 0.565%
46 | COc1ccc(C(=O)Nc2ccc(Cl)cc2C(=O)Nc2ccncc2)cc1 | -4.155% | 14.4% | -19.7%
47 | CCCCNc1nc(NC(C)(C)C)nc(NC(C)(C)C)n1 | 83.46% | -9.24% | -29.6%
48 | COc1ccc(C(=O)C(CCC(CNC(C)(C)C)C(=O)c2ccc(OC)cc2)CNC(C)(C)C)cc1 (configuration not stated) | -12.62% | 16.3% | 4.72%
49 | CCC(O)c1ccc(Br)cc1NC(=O)c1cccc(Cl)c1 (configuration not stated) | -8.417% | 4.9% | -44%
50 | CN1c2ccccc2N(C)C1c1ccc2c(c1)OCO2 | 3.083% | 8.56% | -33.5%
51 | Cc1ccc2nc(C)cc(Nc3cccc(C(F)(F)F)c3)c2c1.Cl | -4.574% | -27.5% | -16.2%
52 | COCCN(C(=O)Cc1cccs1)C(C(=O)NCc1ccc(OC)cc1)c1ccc(C(C)C)cc1 (configuration not stated) | 0.1558% | 9.73% | -5.87%
53 | O=C(NC1CCCC1)c1ccc(N2CCC(NCc3cccc(C(F)(F)F)c3)CC2)cc1 | -10.11% | -12% | -14%
54 | CCOC(=O)c1c(C)n(-c2ccccc2)c2ccc(OC(=O)c3cc(OC)c(OC)c(OC)c3)cc12 | -17.17% | 18.3% | -31.5%
55 | CN1CCN(c2ncnc3c2[nH]c2ccc(Cl)cc23)CC1 | -3.248% | -2.21% | 6.75%
56 | CCOC(=O)C1CCN(C(=O)CN2C(=O)c3ccccc3C2c2c[nH]c3ccccc23)CC1 (configuration not stated) | -16.49% | 32.6% | -26%
57 | CC(C)CNC(=O)c1c(N)n(CCc2ccccc2F)c2nc3ccccc3nc12 | -6.274% | 24.1% | -24.2%
58 | CN(C)CCCNCc1ccc(-c2ccc(F)c(Cl)c2)o1.Cl | -12.37% | 51.9% | 38.4%
59 | COCCNC(=O)c1ccc(OC2CCN(Cc3ccc(F)c(F)c3)CC2)c(Cl)c1 | -5.71% | 16.4% | -14.3%
60 | CCCOCc1cc(CN2CCN(c3cccc(Cl)c3)CC2)c(O)c2ncccc12 | -5.698% | 19% | 14.3%
61 | COc1cccc(NC(=O)Cn2c(C)c(C#N)c3ccccc32)c1 | -1.894% | 21.9% | -23.6%
62 | CCOC(=O)c1cnc2ccc(OC)cc2c1Nc1ccc(N2CCN(C)CC2)cc1 | -18.25% | -13.9% | -40%
63 | CCOc1ccccc1NC(=O)CN1CCN(C(=O)c2ccco2)CC1 | -13.05% | 19.3% | 12.9%
64 | CCOc1ccc2c(c1)CN(Cc1ccc(Cl)cc1)CO2 | 5.14% | 18.9% | -18.1%
